Laboratory results from US8779156B2, “Analogues for the treatment or prevention of flavivirus infections” (Vertex Pharmaceuticals Incorporated, priority 2010, dated 2014).

Tested on: HCV (1b) replicon, Huh-ET cells
Assay: Cell-based luciferase reporter HCV (1b) RNA replication assay
Details: Hepatitis C virus, 96 h; HCV 1b replicon, luciferase, 4 days incubation; read-out: EC50_1b
Source text: Cell-Based Luciferase Reporter HCV (Ib) RNA Replication Assay Cell Culture
Replicon cell lines Huh-5.2 are derived from the Huh-7 hepatocarcinoma cell line are maintained in culture as generally described in Krieger, N; Lohmann, V; Bartenschlager, R. Enhancement of hepatitis C virus RNA replication by cell culture-adaptive mutations. J. Virol. 2001, 75, 4614-4624. The Huh-5.2 cells contain the highly cell culture-adapted replicon I389luc-ubi-neo/NS3-375.1 construct that carries, in addition to the neomycin gene, an integrated copy to the firefly luciferase gene (Krieger, N; Lohmann, V; Bartenschlager, R. Enhancement of hepatitis C virus RNA replication by cell culture-adaptive mutations. J. Virol. 2001, 75, 4614-4624). This cell line allows measurement of HCV RNA replication and translation by measuring luciferase activity. It has been previously shown that the luciferase activity tightly follows the replicon RNA level in these cells (Krieger, N; Lohmann, V; Bartenschlager, R. Enhancement of hepatitis C virus RNA replication by cell culture-adaptive mutations. J. Virol. 2001, 75, 4614-4624). The Huh-ET cell line has the same features as those mentioned for Huh-5.2 cell line, except that ET cells are more robust and contain an adaptative mutation in the HCV NS4B gene instead of NS5A. Both cell lines are maintained in cultures at a sub-confluent level (<85%) as the level of replicon RNA is highest in actively proliferating cells. The culture media used for cell passaging consist of DMEM (Gibco BRL Laboratories, Mississauga, ON, Canada) supplemented with 10% foetal bovine serum with 1% penicilin/streptomycin, 1% glutamine, 1% sodium pyruvate, 1% non-essential amino acids, and 180 μg/ml of G418 final concentration. Cells are incubated at 37° C., in an atmosphere of 5% CO2 and passaged twice a week to maintain sub-confluence.
Approximately 3000 viable Huh-ET cells (100 μl) are plated per well in a white opaque 96-well microtiter plate. The cell culture media used for the assay is the same as described above except that it contains no G418 and no phenol red. After an incubation period of 3-4 hours at 37° C. in a 5% CO2 incubator, compounds (100 μl) are added at various concentrations. Cells are then further incubated for 4 days at 37° C. in a 5% CO2 incubator. Thereafter, the culture media is removed and cells are lysed by the addition of 95 μL of the luciferase buffer (luciferin substrate in buffered detergent). Cell lysates are incubated at room temperature and protected from direct light for at least 10 minutes. Plates are read for luciferase counts using a luminometer (Wallac MicroBeta Trilux, Perkin Elmer™, MA, USA).
Curves are fitted to data points using nonlinear regression analysis, and IC50s are interpolated from the resulting curve using GraphPad Prism software, version 2.0 (GraphPad Software Inc., San Diego, Calif., USA).

Row | Structure (SMILES) | EC50
1 | COC(=O)N(C)C(C(=O)N1C[C@@H](C)C[C@H]1c1nc(-c2ccc(C#Cc3ccc4[nH]c([C@@H]5C[C@H](C)CN5C(=O)C(C(C)C)N(C)C(=O)OC)nc4c3)cc2)c[nH]1)C(C)C (stereo in doubt) [Compound 10, Methyl N-[(1S)-1-[(2S,4S)-2-[4-[4-[2-[2-[(2S,4S)-1-[(2S)-2-[methoxycarbonyl-(methyl)amino]-3-methyl-butanoyl]-4-methyl-pyrrolidin-2-yl]-1H-benzimidazol-5-yl]ethynyl]phenyl]-1H-imidazol-2-yl]-4-methyl-pyrrolidine-1-carbonyl]-2-methyl-propyl]-N-methyl-carbamate] | ≤ 5 nM
2 | O=C(OCc1ccccc1)N1CCCC1c1ncc(-c2ccc(C#Cc3ccc4[nH]c(C5CCCCN5C(=O)OCc5ccccc5)nc4c3)cc2)[nH]1 (centres unmarked) [Compound 1] | 5 to 5000 nM
3 | O=C(OCc1ccccc1)N1CCC[C@H]1c1ncc(-c2ccc(C#Cc3ccc4[nH]c([C@@H]5CCCN5C(=O)OCc5ccccc5)nc4c3)cc2)[nH]1 [Compound 2] | 5 to 5000 nM
4 | COC(=O)N[C@H](C(=O)N1CCC[C@H]1c1nc(-c2ccc(-c3ccc4[nH]c([C@@H]5CCCN5C(=O)[C@@H](NC(=O)OC)C(C)C)nc4c3)cc2)c[nH]1)C(C)C [Compound 3, Methyl N-[(1S)-1-[(2S)-2-[4-[4-[2-[(2S)-1-[(2S)-2-(methoxycarbonylamino)-3-methyl-butanoyl]pyrrolidin-2-yl]-1H-benzimidazol-5-yl]phenyl]-1H-imidazol-2-yl]pyrrolidine-1-carbonyl]-2-methyl-propyl]carbamate] | ≤ 5 nM
5 | COC(=O)N(C)[C@H](C(=O)N1C[C@@H](C)C[C@H]1c1ncc(-c2ccc(-c3ccc(-c4ccc5[nH]c([C@@H]6C[C@H](C)CN6C(=O)[C@H](C(C)C)N(C)C(=O)OC)nc5c4)cc3)cc2)[nH]1)C(C)C [Compound 6, Methyl N-[(1S)-1-[(2S,4S)-2-[4-[4-[4-[2-[(2S,4S)-1-[(2S)-2-[methoxycarbonyl(methyl)amino]-3-methyl-butanoyl]-4-methyl-pyrrolidin-2-yl]-1H-benzimidazol-5-yl]phenyl]phenyl]-1H-imidazol-2-yl]-4-methyl-pyrrolidine-1-carbonyl]-2-methyl-propyl]-N-methyl-carbamate] | ≤ 5 nM
6 | COC(=O)N[C@H](C(=O)N1C[C@@H](C)C[C@H]1c1ncc(-c2ccc(-c3ccc(-c4ccc5[nH]c([C@@H]6C[C@H](C)CN6C(=O)[C@H](C(C)C)N(C)C(=O)OC)nc5c4)cc3)cc2)[nH]1)C(C)C [Compound 7, ((S)-1-{(2S,4S)-2-[5-(4′-{2-[(2S,4S)-1-((S)-2-Methoxycarbonylamino-3-methyl-butyryl)-4-methyl-pyrrolidin-2-yl]-1H-imidazol-4-yl}-biphenyl-4-yl)-1H-benzoimidazol-2-yl]-4-methyl-pyrrolidine-1-carbonyl}-2-methyl-propyl)-methyl-carbamic acid methyl ester] | ≤ 5 nM
7 | COC(=O)N[C@H](C(=O)N1C[C@@H](C)C[C@H]1c1nc2cc(-c3ccc(-c4ccc(-c5cnc([C@@H]6C[C@H](C)CN6C(=O)[C@H](C(C)C)N(C)C(=O)OC)[nH]5)cc4)cc3)ccc2[nH]1)C(C)C [Compound 8, Methyl ((S)-1-((2S,4S)-2-(4-(4′-(2-((2S,4S)-1-((S)-2-((methoxycarbonyl)amino)-3-methylbutanoyl)-4-methylpyrrolidin-2-yl)-3H-benzo[d]imidazol-6-yl)-[1,1′-biphenyl]-4-yl)-1H-imidazol-2-yl)-4-methylpyrrolidin-1-yl)-3-methyl-1-oxobutan-2-yl)(methyl)carbamate] | ≤ 5 nM
8 | COC(=O)N[C@H](C(=O)N1C[C@@H](C)C[C@H]1c1nc(-c2ccc(C#Cc3ccc4[nH]c([C@@H]5C[C@H](C)CN5C(=O)[C@@H](NC(=O)OC)C(C)C)nc4c3)cc2)c[nH]1)C(C)C [Compound 9, Methyl N-[(1S)-1-[(2S,4S)-2-[4-[4-[2-[2-[(2S,4S)-1-[(2S)-2-(methoxycarbonylamino)-3-methyl-butanoyl]-4-methyl-pyrrolidin-2-yl]-1H-benzimidazol-5-yl]ethynyl]phenyl]-1H-imidazol-2-yl]-4-methyl-pyrrolidine-1-carbonyl]-2-methyl-propyl]carbamate] | ≤ 5 nM
